Data reported in the NIST ThermoML archive (doi:10.1021/je030156p).
± gives the expanded uncertainty stated by the source.

Conditions: Liquid, Ebulliometric method (Recirculating still)

| Compound | vapor or sublimation pressure (268.15 K) [kPa] | vapor or sublimation pressure (273.15 K) [kPa] | vapor or sublimation pressure (283.15 K) [kPa] | vapor or sublimation pressure (293.15 K) [kPa] | vapor or sublimation pressure (303.15 K) [kPa] | vapor or sublimation pressure (313.15 K) [kPa] |
| --- | --- | --- | --- | --- | --- | --- |
| FC(F)C(F)(F)F [pentafluoroethane] | 573.7 ± 2 | 671.4 ± 2.1 | 907.6 ± 2.1 | 1202.8 ± 2.1 | 1566 ± 2.2 | 2004.9 ± 2.2 |
| CCC [propane] | 407.9 ± 2 | 476.9 ± 2 | 637.2 ± 2.1 | 839.2 ± 2.1 | 1074.6 ± 2.1 | 1364.3 ± 2.2 |
